How the values were obtained:
RAW264.7 [1] = experiment: Inhibition of LPS-induced NO production in mouse RAW264.7 cells after 24 hrs by Griess reaction; assay type: functional, cell-based; conditions: RAW264.7, 24 h
RAW264.7 [2] = experiment: Cytotoxicity against mouse RAW264.7 cells after 24 hrs; assay type: cell-based; conditions: raw264.7, 24 h

| Compound | IC50 (RAW264.7 [1]) | Activity (RAW264.7 [2]) |
| --- | --- | --- |
| C[C@@]12C[C@@]3(O)O[C@@H](O1)[C@]1(COC(=O)c4ccc(O)cc4)[C@@H]3C[C@]12O[C@@H]1O[C@H](CO)[C@@H](O)[C@H](O)[C@H]1O [OXYPAEONIFLORIN] | > 100 µM | – |
| COc1cc(C(=O)OC[C@H]2O[C@@H](O[C@]34C[C@@H]5[C@@]3(COC(=O)c3ccccc3)[C@H]3O[C@]5(O)C[C@]4(C)O3)[C@H](O)[C@@H](O)[C@@H]2O)ccc1O [MUDANPIOSIDE J] | > 100 µM | Non-toxic |
| COc1cc(C(=O)OC[C@H]2O[C@@H](O[C@@]34C[C@H]5[C@@]3(CO)[C@H]3O[C@]5(O)C[C@]4(C)O3)[C@H](O)[C@@H](O)[C@@H]2O)ccc1O [MUDANPIOSIDE E] | > 100 µM | Non-toxic |
| COc1ccc(C(=O)OC[C@H]2O[C@@H](O[C@]34C[C@@H]5[C@@]3(COC(=O)c3ccc(O)cc3)[C@H]3O[C@]5(O)C[C@]4(C)O3)[C@H](O)[C@@H](O)[C@@H]2O)cc1 [MOUDANPIOSIDE B] | > 100 µM | Non-toxic |
| C[C@@]12C[C@@]3(O)O[C@@H](O1)[C@]1(COC(=O)c4ccccc4)[C@@H]3C[C@]12O[C@@H]1O[C@H](COC(=O)c2cc(O)c(O)c(O)c2)[C@@H](O)[C@H](O)[C@H]1O [GALLOYLPAEONIFLORIN] | 36.1 µM | Non-toxic |
| C[C@@]12C[C@@]3(O)O[C@@H](O1)[C@]1(COC(=O)c4ccc(O)cc4)[C@H]3C[C@@]12O[C@@H]1O[C@H](COC(=O)c2cc(O)c(O)c(O)c2)[C@@H](O)[C@H](O)[C@H]1O [GALLOYLOXYPAEONIFLORIN] | > 100 µM | Non-toxic |
| CO[C@]12C[C@]3(C)O[C@H](O1)[C@]1(COC(=O)c4ccccc4)[C@@H]2C[C@]13O[C@@H]1O[C@H](COC(=O)c2ccccc2)[C@@H](O)[C@H](O)[C@H]1O | 41.9 µM | Non-toxic |
| C[C@@]12C[C@@]3(O)O[C@@H](O1)[C@]1(COC(=O)c4ccc(O)cc4)[C@H]3C[C@@]12O[C@@H]1O[C@H](COC(=O)c2ccc(O)cc2)[C@@H](O)[C@H](O)[C@H]1O [MUDANPIOSIDE H] | > 100 µM | Non-toxic |
| C[C@@]12C[C@@]3(OS(=O)O)O[C@@H](O1)[C@]1(COC(=O)c4ccc(O)cc4)[C@H]3C[C@@]12O[C@@H]1O[C@H](CO)[C@@H](O)[C@H](O)[C@H]1O [OXYPAEONIFLORIN SULFONATE] | > 100 µM | Non-toxic |
| C[C@@]12C[C@@]3(O)O[C@@H](O1)[C@]1(CO)[C@H]3C[C@@]12O[C@@H]1O[C@H](CO)[C@@H](O)[C@H](O)[C@H]1O | 74.2 µM | Non-toxic |
| CO[C@]12C[C@]3(C)O[C@H](O1)[C@]1(COC(=O)c4ccc(O)cc4)[C@H]2C[C@@]13O[C@@H]1O[C@H](COC(=O)c2cc(O)c(O)c(O)c2)[C@@H](O)[C@H](O)[C@H]1O | > 100 µM | Non-toxic |
| CC1=CC(=O)[C@@H]2C[C@@]1(O[C@@H]1O[C@H](CO)[C@@H](O)[C@H](O)[C@H]1O)[C@@]2(C)CO [MOUDANPIOSIDE F] | 12.4 µM | Non-toxic |
| CO[C@@H]1O[C@@]2(C)CC(=O)[C@@H]3C[C@@]2(O[C@@H]2O[C@H](CO)[C@@H](O)[C@H](O)[C@H]2O)[C@]13COC(=O)c1ccc(O)cc1 | – | Non-toxic |
| C[C@@]12C[C@@]3(O)O[C@@H](O1)[C@]1(COC(=O)c4ccc(O)cc4)[C@H]3C[C@@]12O[C@@H]1O[C@H](CO)[C@@H](O)[C@H](O)[C@H]1O [OXYPAEONIFLORIN] | – | Non-toxic |
| C[C@@]12C[C@@]3(O)O[C@@H](O1)[C@]1(COC(=O)c4ccccc4)[C@H]3C[C@@]12O[C@@H]1O[C@H](COC(=O)c2ccccc2)[C@@H](O[C@@H]2O[C@H](CO)[C@@H](O)[C@H](O)[C@H]2O)[C@H](O)[C@H]1O [PAEONIFLORIN B] | 31.2 µM | Non-toxic |
| C[C@@]12CC(=O)[C@H]3C[C@]1(O)O[C@H](O2)[C@@H]3COC(=O)c1ccccc1 [PAEONIFLORIGENONE] | 6.87 µM | Non-toxic |

Further lines, with some results ahead:

| IC50 (RAW264.7 [1]) | Compound | Activity (RAW264.7 [2]) |
| --- | --- | --- |
| > 100 µM | CCCCO[C@]12C[C@]3(C)OC(O1)[C@]1(COC(=O)c4ccccc4)[C@@H]2C[C@@]31O[C@@H]1O[C@H](CO)[C@@H](O)[C@H](O)[C@H]1O | Non-toxic |
| 90.9 µM | CO[C@H]1O[C@@]2(C)CC(=O)[C@@H]3C[C@@]2(O[C@@H]2O[C@H](CO)[C@@H](O)[C@H](O)[C@H]2O)[C@]13COC(=O)c1ccc(O)cc1 [OXYPAEONIDANIN] | Non-toxic |
| > 100 µM | C[C@@]12C[C@@]3(O)O[C@@H](O1)[C@]1(COC(=O)c4ccccc4)[C@@H]3C[C@]12O[C@@H]1O[C@H](COC(=O)c2ccccc2)[C@@H](O)[C@H](O)[C@H]1O [BENZOYLPAEONIFLORIN] | Non-toxic |
| > 100 µM | CO[C@]12C[C@]3(C)O[C@H](O1)[C@]1(COC(=O)c4ccc(O)cc4)[C@H]2C[C@@]13O[C@@H]1O[C@H](CO)[C@@H](O)[C@H](O)[C@H]1O | Non-toxic |
| > 100 µM | CO[C@]12C[C@]3(C)O[C@H](O1)[C@]1(COC(=O)c4ccccc4)[C@@H]2C[C@]13O[C@@H]1O[C@H](CO)[C@@H](O)[C@H](O)[C@H]1O | Non-toxic |
| > 100 µM | CCCCO[C@H]1O[C@@]2(C)CC(=O)[C@@H]3C[C@@]2(O[C@@H]2O[C@H](CO)[C@@H](O)[C@H](O)[C@H]2O)[C@]13COC(=O)c1ccccc1 | Non-toxic |
| > 100 µM | CCCCO[C@]12C[C@]3(C)O[C@H](O1)[C@]1(COC(=O)c4ccc(O)cc4)[C@H]2C[C@@]13O[C@@H]1O[C@H](CO)[C@@H](O)[C@H](O)[C@H]1O | Non-toxic |
| > 100 µM | CCCCO[C@H]1O[C@@]2(C)CC(=O)[C@@H]3C[C@@]2(O[C@@H]2O[C@H](CO)[C@@H](O)[C@H](O)[C@H]2O)[C@]13COC(=O)c1ccc(O)cc1 | Non-toxic |
| > 100 µM | COc1ccc(C(=O)OC[C@]23[C@H]4O[C@]5(O)C[C@](C)(O4)[C@@]2(O[C@@H]2O[C@H](CO)[C@@H](O)[C@H](O)[C@H]2O)C[C@H]35)cc1 [MUDANPIOSIDE D] | Non-toxic |
| > 100 µM | CO[C@H]1O[C@@]2(C)CC(=O)[C@H]3C[C@]2(O[C@@H]2O[C@H](COC(=O)c4ccccc4)[C@@H](O)[C@H](O)[C@H]2O)[C@]13COC(=O)c1ccccc1 [PAEONIDANIN A] | Non-toxic |
| > 100 µM | C[C@@]12C[C@@]3(O)O[C@@H](O1)[C@]1(COC(=O)c4ccccc4)[C@H]3C[C@@]12O[C@@H]1O[C@H](CO)[C@@H](O)[C@H](O)[C@H]1O [PAEONIFLORIN] | Non-toxic |
